Assay results: patent US20230129258A1, “HETEROTANDEM BICYCLIC PEPTIDE COMPLEXES” (BicycleTx Limited, priority 2019, published 2023)
Blank lines part the entries; values can stand above or below the substance they belong to. Starred links: 1 amine or outer side, 2 acyl side, 3 side chain; linkers in the order of their positions; H or OH if unused. Positions of bridges follow the written chain, without caps; N, C: chain ends. Non-standard residues stand in square brackets, D forms with d. Primed or numbered codes have the meaning given here. Chains are numbered I, II in the order given. No end group written: not given here. X1 = O=C(CCOCCOCCOCCN(CCOCCOCCOCCn1cc(CCC(=O)[*:2])nn1)CCOCCOCCOCCn1cc(CCC(=O)[*:3])nn1)[*:1]; PYA″ = 4-pentynoic acid, acylating the D-Lys side chain, alkyne clicked to the linker azide; X2 = O=C(CCSCCC(=O)[*:1])N1CN(C(=O)CC[*:2])CN(C(=O)CC[*:3])C1; TATA = O=C(CC[*:1])N1CN(C(=O)CC[*:2])CN(C(=O)CC[*:3])C1; Dip = N[C@H](C(=O)O)C(c1ccccc1)c1ccccc1; 1Nal = N[C@@H](Cc1cccc2ccccc12)C(=O)O; d1Nal = N[C@H](Cc1cccc2ccccc12)C(=O)O; Hyp = O=C(O)[C@@H]1C[C@@H](O)CN1; hArg = N=C(N)NCCCC[C@H](N)C(=O)O; tBuAla = CC(C)(C)C[C@H](N)C(=O)O; Aad = N[C@@H](CCCC(=O)O)C(=O)O; Cba = N[C@@H](CC1CCC1)C(=O)O; dK(PYA) = not defined here; NMeA = CN[C@@H](C)C(=O)O; Nle = CCCC[C@H](N)C(=O)O; Mpa = O=C(O)CCS

Molecular target: CD137 (Homo sapiens, UniProt Q07011)
Sequence (Q07011 24-255): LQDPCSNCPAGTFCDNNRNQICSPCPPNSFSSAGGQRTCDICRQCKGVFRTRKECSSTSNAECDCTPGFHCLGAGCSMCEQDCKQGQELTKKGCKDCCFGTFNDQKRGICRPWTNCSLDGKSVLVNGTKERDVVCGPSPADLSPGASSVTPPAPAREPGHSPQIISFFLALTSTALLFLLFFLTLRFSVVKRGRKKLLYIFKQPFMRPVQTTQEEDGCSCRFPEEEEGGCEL
Experiment: CD137 reporter assay (Promega, Jurkat cells) in co-culture with EphA2-expressing tumor cells (A549, PC3, HT29)
Format: cell-based
Parameters: host or cells: Jurkat reporter cells
Conditions: for fold induction / Emax (fold induction over background): CD137 reporter coculture assay with PC3 tumor cells; for fold induction: read-out: Emax (fold induction over background); for EC50: EC50, CD137 reporter coculture assay with PC3 tumor cells; for Fold Improvement over BCY9173, EC50 (nM) / Fold Improvement over Emax: co-culture with PC3; for Fold Improvement over Emax: versus BCY9173
Procedure: Culture medium, referred to as R1 media, is prepared by adding 1% FBS to RPMI-1640 (component of Promega kit CS196005). Serial dilutions of test articles in R1 are prepared in a sterile 96 well-plate. Add 25 μL per well of test articles or R1 (as a background control) to designated wells in a white cell culture plate. Tumor cells* are harvested and resuspended at a concentration of 400,000 cells/mL in R1 media. Twenty five (25) μL/well of tumor cells are added to the white cell culture plate. Jurkat cells (Promega kit CS196005, 0.5 mL) are thawed in the water bath and then added to 5 ml pre-warmed R1 media. Twenty five (25) μL/well of Jurkat cells are then added to the white cell culture plate. Incubate the cells and test articles for 6 h at 37° C., 5% CO2. At the end of 6 h, add 75 μL/well Bio-Glo™ reagent (Promega) and incubate for 10 min before reading luminescence in a plate reader (Clariostar, BMG). The fold change relative to cells alone (Jurkat cells+Cell line used in co-culture) is calculated and plotted in GraphPad Prism as log(agonist) vs response to determine EC50 (nM) and Fold Induction over background (Max).
The tumor cell types used in co-culture for EphA2 are A549, PC3 and HT29. The tumor cell type used in co-culture for PD-L1 is RKO.

Substance: I: A[hArg]DC[Hyp]LVNPLCLHP[dE]W[hArg]C-NH2 / II: Ac-C[tBuAla]PE[dK]PYCFADPY[Nle]CA-NH2 / III: Ac-C[tBuAla]PE[dK]PYCFADPY[Nle]CA-NH2 (linker I:4-I:11-I:18, II:1-II:8-II:15, III:1-III:8-III:15 via TATA; linker I:N-II:5-III:5 via X1) [BCY12977]
fold induction: 67.2
EC50: 0.08 nM

Substance: I: [NMeA][hArg]DC[Hyp]LVNPLCLHP[dD]W[hArg]C-NH2 / II: Ac-C[tBuAla]PE[dK]PYCFADPY[Nle]CA-NH2 / III: Ac-C[tBuAla]PE[dK]PYCFADPY[Nle]CA-NH2 (linker I:4-I:11-I:18, II:1-II:8-II:15, III:1-III:8-III:15 via TATA; linker I:N-II:5-III:5 via X1) [BCY13275]
Emax (fold induction over background): 47.50
EC50: 0.08 nM

Fold Improvement over BCY9173, EC50 (nM): 0.2 fold
Fold Improvement over Emax: 0.9 fold
Substance: BCY12726: EphA2:CD137 1:2; BCY9594 + 2x BCY12145; linker N-(acid-PEG3)-N-bis(PEG3-azide) (peptide 1 A[hArg]DC[Hyp]LVNPLCLHP[dD]W[hArg]C; peptide 2 Ac-C[tBuAla]PE[dK(PYA)]PYCFAEPY[Nle]C; linker I:4-I:11-I:18 via TATA (inferred); linker II:1-II:8-II:15 via TATA; linker II:N-II:5 via N‑(acid-PEG3)‑N‑bis(PEG3-azide); not fully specified (N-terminus); reading uncertain; also: chain 2 twice (1:2 complex))

Substance: I: A[hArg]DC[Hyp]LVNPLCLHP[d1Nal]W[hArg]C-NH2 / II: Ac-C[tBuAla]PE[dK]PYCFADPY[Nle]CA-NH2 / III: Ac-C[tBuAla]PE[dK]PYCFADPY[Nle]CA-NH2 (linker I:4-I:11-I:18, II:1-II:8-II:15, III:1-III:8-III:15 via TATA; linker I:N-II:5-III:5 via X1) [BCY13270]
fold induction: 42.5
EC50: 0.1 nM

Substance: I: A[hArg]DC[Hyp]LVNPLCLHP[dD]WTC-NH2 / II: Ac-C[tBuAla]PE[dK]PYCFADPY[Nle]CA-NH2 / III: Ac-C[tBuAla]PE[dK]PYCFADPY[Nle]CA-NH2 (linker I:4-I:11-I:18, II:1-II:8-II:15, III:1-III:8-III:15 via TATA; linker I:N-II:5-III:5 via X1) [BCY13043]
fold induction: 52.7
EC50: 0.11 nM

Substance: I: Ac-C[Hyp]LVNPLCL[Dip]P[dD]WTC[dK]-NH2 / II: Ac-C[tBuAla]PE[dK]PYCFADPY[Nle]CA-NH2 / III: Ac-C[tBuAla]PE[dK]PYCFADPY[Nle]CA-NH2 (linker I:1-I:8-I:15, II:1-II:8-II:15, III:1-III:8-III:15 via TATA; linker I:16-II:5-III:5 via X1; C-terminus assumed) [BCY13274]
Emax (fold induction over background): 47.43
EC50: 0.19 nM

Substance: I: Ac-A[hArg]DC[Hyp]LVNPLCKHP[dD]W[hArg]C-NH2 / II: Ac-C[tBuAla]PE[dK]PYCFADPY[Nle]CA-NH2 / III: Ac-C[tBuAla]PE[dK]PYCFADPY[Nle]CA-NH2 (linker I:4-I:11-I:18, II:1-II:8-II:15, III:1-III:8-III:15 via TATA; linker I:12-II:5-III:5 via X1) [BCY12976]
fold induction: 73.2
EC50: 0.18 nM

Fold Improvement over BCY9173, EC50 (nM): 4.16 fold
Fold Improvement over Emax: 1.89 fold
Substance: BCY14052: EphA2:CD137 1:2; BCY13920 + 2x BCY8928; linker N-(acid-PEG3)-N-bis(PEG3-azide) (peptide 1 A[hArg]DC[Hyp]LVNPLCLFP[dD]W[hArg]C; peptide 2 Ac-C[tBuAla]PE[dK](PYA″)PYCFADPY[Nle]CA; linker I:4-I:11-I:18 via TATA; linker II:1-II:8-II:15 via TATA (inferred); not fully specified (N-terminus, bridges); also: 2x chain 2 (2x BCY8928) on linker)

Substance: I: A[hArg]DC[Hyp]LVNPLCL[Dip]P[dD]W[hArg]C-NH2 / II: Ac-C[tBuAla]PE[dK]PYCFADPY[Nle]CA-NH2 / III: Ac-C[tBuAla]PE[dK]PYCFADPY[Nle]CA-NH2 (linker I:4-I:11-I:18, II:1-II:8-II:15, III:1-III:8-III:15 via TATA; linker I:N-II:5-III:5 via X1) [BCY13054]
Emax (fold induction over background): 36.53
EC50: 0.07 nM

Substance: I: [dA][hArg]DC[Hyp][Cba]VNPLCLEP[dD]WTC[dA]-NH2 / II: Ac-C[tBuAla]PE[dK]PYCFADPY[Nle]CA-NH2 / III: Ac-C[tBuAla]PE[dK]PYCFADPY[Nle]CA-NH2 (linker I:4-I:11-I:18, II:1-II:8-II:15, III:1-III:8-III:15 via TATA; linker I:N-II:5-III:5 via X1) [BCY13052]
fold induction: 32.9
EC50: 0.21 nM

Substance: I: A[hArg]EC[Hyp]LVNPLCLHP[dE]W[hArg]C-NH2 / II: Ac-C[tBuAla]PE[dK]PYCFADPY[Nle]CA-NH2 / III: Ac-C[tBuAla]PE[dK]PYCFADPY[Nle]CA-NH2 (linker I:4-I:11-I:18, II:1-II:8-II:15, III:1-III:8-III:15 via TATA; linker I:N-II:5-III:5 via X1) [BCY12978]
fold induction: 78.1

Substance: I: C[Hyp]LVNPLCLEP[dD]WTC[dA]-NH2 / II: Ac-C[tBuAla]PE[dK]PYCFADPY[Nle]CA-NH2 / III: Ac-C[tBuAla]PE[dK]PYCFADPY[Nle]CA-NH2 (linker I:1-I:8-I:15, II:1-II:8-II:15, III:1-III:8-III:15 via TATA; linker I:N-II:5-III:5 via X1) [BCY13049]
Emax (fold induction over background): 46.03

Substance: I: [NMeA][hArg]DC[Hyp]LVNPLCLEP[dD]WTC-NH2 / II: Ac-C[tBuAla]PE[dK]PYCFADPY[Nle]CA-NH2 / III: Ac-C[tBuAla]PE[dK]PYCFADPY[Nle]CA-NH2 (linker I:4-I:11-I:18, II:1-II:8-II:15, III:1-III:8-III:15 via TATA; linker I:N-II:5-III:5 via X1) [BCY13276]
fold induction: 50.5
EC50: 0.1 nM

Substance: I: C[Hyp][Cba]VNPLCL[Dip]P[dD]WTC[dA]-NH2 / II: [Mpa][tBuAla]PE[dK]PYCFADPY[Nle]C-NH2 / III: [tBuAla]PE[dK]PYCFADPY[Nle]C-NH2 (linker I:1-I:8-I:15, II:1-II:8-II:15 via TATA; linker I:N-II:5-III:4 via X1; linker III:N-III:7-III:14 via X2) [BCY13341]
Emax (fold induction over background): 49.15
EC50: 0.19 nM

Substance: I: A[hArg]DC[Hyp]LVNPLC[Aad]HP[dD]W[hArg]C-NH2 / II: Ac-C[tBuAla]PE[dK]PYCFADPY[Nle]CA-NH2 / III: Ac-C[tBuAla]PE[dK]PYCFADPY[Nle]CA-NH2 (linker I:4-I:11-I:18, II:1-II:8-II:15, III:1-III:8-III:15 via TATA; linker I:N-II:5-III:5 via X1) [BCY13285]
Emax (fold induction over background): 36.53
EC50: 0.26 nM

Substance: I: Ac-A[hArg]DC[Hyp]LVNPLCLHP[dD]W[hArg]CK-NH2 / II: Ac-C[tBuAla]PE[dK]PYCFADPY[Nle]CA-NH2 / III: Ac-C[tBuAla]PE[dK]PYCFADPY[Nle]CA-NH2 (linker I:4-I:11-I:18, II:1-II:8-II:15, III:1-III:8-III:15 via TATA; linker I:19-II:5-III:5 via X1) [BCY12973]
fold induction: 48.6
EC50: 0.16 nM

Substance: I: A[hArg]DC[Hyp]LVNPLCL[Nle]P[dD]W[hArg]C-NH2 / II: Ac-C[tBuAla]PE[dK]PYCFADPY[Nle]CA-NH2 / III: Ac-C[tBuAla]PE[dK]PYCFADPY[Nle]CA-NH2 (linker I:4-I:11-I:18, II:1-II:8-II:15, III:1-III:8-III:15 via TATA; linker I:N-II:5-III:5 via X1) [BCY13289]
fold induction: 45.8
EC50: 0.08 nM

Substance: I: ADC[Hyp]LVNPLCLEP[dD]WTC-NH2 / II: Ac-C[tBuAla]PE[dK]PYCFADPY[Nle]CA-NH2 / III: Ac-C[tBuAla]PE[dK]PYCFADPY[Nle]CA-NH2 (linker I:3-I:10-I:17, II:1-II:8-II:15, III:1-III:8-III:15 via TATA; linker I:N-II:5-III:5 via X1) [BCY13282]
fold induction: 40

Substance: I: A[hArg]DC[Hyp]LVNPLCLHP[dD]W[hArg]C-NH2 / II: [Mpa][tBuAla]EE[dK]PYCFADPY[Nle]C-NH2 / III: [tBuAla]EE[dK]PYCFADPY[Nle]C-NH2 (linker I:4-I:11-I:18, II:1-II:8-II:15 via TATA; linker I:N-II:5-III:4 via X1; linker III:N-III:7-III:14 via X2) [BCY13139]
Emax (fold induction over background): 43.75
EC50: 0.16 nM

Substance: I: A[hArg]DC[Hyp]LVNPLCL[1Nal]P[dD]W[hArg]C-NH2 / II: Ac-C[tBuAla]PE[dK]PYCFADPY[Nle]CA-NH2 / III: Ac-C[tBuAla]PE[dK]PYCFADPY[Nle]CA-NH2 (linker I:4-I:11-I:18, II:1-II:8-II:15, III:1-III:8-III:15 via TATA; linker I:N-II:5-III:5 via X1) [BCY13271]
Emax (fold induction over background): 44.20
EC50: 0.09 nM
